This test deals with RBC membrane. In words: In-vitro anti-inflammatory activity, RBC membrane protection. The note with it: concentration of 5 mg/mL. Type of test: cell-based.

Regarding `O=C(O)Cc1ccccc1Nc1c(Cl)cccc1Cl` [diclofenac sodium], the RBC membrane protection worked out at 76%.
`C[C@]12C=CC(=O)C=C1CC[C@@H]1[C@@H]2[C@@H](O)C[C@@]2(C)[C@H]1CC[C@]2(O)C(=O)CO` [prednisolone]: the RBC membrane protection was found to be 73%.

For the origin of these results see US20240108674A1, “BERBERIS EXTRACT NANO-FORMULATION AND PROCESS OF PREPARATION THEREOF” (priority 2021, published 2024).
